Data as given in PubChem BioAssay AID1996.
Converted amounts (≈) assume the structure as drawn.

Conditions: buffer; pH 7.4; 200.0 µM

Row | solubility kinetic | SMILES
1 | 2.8 µg/mL (≈ 9.83 µM) | CSc1ccc(Cl)c(C(=O)Nc2nccs2)c1
2 | > 55.2 µg/mL | Nc1cc(S(=O)(=O)Nc2ccc(Cl)cc2)ccc1N1CCOCC1
3 | 7.1 µg/mL (≈ 25.2 µM) | CCC(C)c1ccccc1N=Cc1ccc2c(c1)OCO2 (stereo not given)
4 | 0.8 µg/mL (≈ 2.41 µM) | O=Cc1ccc(OCC(=O)Nc2ccccc2-c2ccccc2)cc1
5 | 21.9 µg/mL (≈ 59.3 µM) | Cc1nc(NC(=O)COC(=O)c2ccc(CO)cc2)c(Cl)cc1Cl
6 | 16.8 µg/mL (≈ 45.1 µM) | O=C(Oc1ccc(C(=S)N2CCOCC2)cc1)c1ccccc1[N+](=O)[O-]
7 | 4.1 µg/mL (≈ 13.9 µM) | Cc1ccc(C(=O)COC(=O)c2cn3ccccc3n2)cc1
8 | > 55.4 µg/mL | CC1(C2CC2)NC(=O)N(CC(=O)Nc2ccc(SC(F)F)cc2)C1=O (stereo not given)
9 | > 49.7 µg/mL | COc1cccc(C(=O)Nc2sc3c(c2C(=O)O)CCCC3)c1
10 | 28 µg/mL (≈ 72.6 µM) | Cc1cc2oc(=O)c(CC(=O)NCCCO)c(C)c2c2occ(C(C)(C)C)c12
11 | 1.2 µg/mL (≈ 4.28 µM) | O=C(Nc1ccccc1)c1ccc(NC(=O)C2CC2)cc1
12 | 44.7 µg/mL (≈ 142 µM) | O=C(NCc1ccccc1F)C1CCCN(c2cnccn2)C1 (stereo not given)
13 | < 0.2 µg/mL | Cc1sc2c(c1C)C(=O)/C(=C\Nc1ccccn1)S(=O)(=O)N2C
14 | 10.2 µg/mL (≈ 35.4 µM) | Cc1nc(C)c(-c2csc(Nc3ccccn3)n2)s1
15 | 28.7 µg/mL (≈ 62 µM) | CC(C(=O)Nc1ccc(S(=O)(=O)N2CCCC2)cc1)N(C)CC(=O)Nc1cccc(F)c1 (stereo not given)
16 | 31.7 µg/mL (≈ 131 µM) | CN1CC(C(=O)O)Cc2c1ccc1ccccc21 (stereo not given)
17 | > 69.1 µg/mL | O=C(COC(=O)Cc1ccc(S(=O)(=O)N2CCOCC2)s1)Nc1ccc(F)cc1F
18 | 30.5 µg/mL (≈ 124 µM) | Cc1cccc(CC(=O)NC2CCCCCC2)c1
19 | < 0.7 µg/mL | O=C(COc1ccccc1Cl)Nc1ccc2oc(=O)ccc2c1
20 | 7.6 µg/mL (≈ 21.2 µM) | O=C(NCc1ccccc1)c1cccc(S(=O)(=O)N2CCCCC2)c1
21 | 26.6 µg/mL (≈ 102 µM) | COc1ccccc1CNC(=O)c1sccc1C
22 | > 52 µg/mL | NC(=O)NC(CC(=O)NCCc1ccccn1)c1ccccc1Cl (stereo not given)
23 | < 0.3 µg/mL | Cc1ccc(CNC(=S)NC2CCC(C(C)(C)C)CC2)cc1 (stereo not given)

Row | solubility kinetic | SMILES
24 | 48.4 µg/mL (≈ 128 µM) | CN1CCN(CC(=O)Nc2c(C(=O)c3ccccc3)oc3ccccc23)CC1
25 | > 48.1 µg/mL | CCCCC(=O)N(CCOC)c1nnc(-c2cccnc2)s1
26 | > 51.2 µg/mL | CN(C)CCNC(=O)c1ccc2c(c1)NC(=O)c1ccccc1S2
27 | > 35 µg/mL | Cc1nc(-c2ccccc2)sc1C(=O)NN
28 | 13.8 µg/mL (≈ 50.7 µM) | Cn1cccc1C(=O)OCc1cc(-c2ccco2)on1
29 | 1.7 µg/mL (≈ 5.45 µM) | COc1nc(C)cc(C)c1S(=O)(=O)c1ccc(Cl)cc1
30 | 45.9 µg/mL (≈ 133 µM) | COc1ccc(CC(=O)NCCCSc2ccccc2)cc1OC
31 | > 44 µg/mL | Nc1ccc[n+](CC(=O)c2ccccc2)c1.[Br-]
32 | 3.9 µg/mL (≈ 14.4 µM) | O=C1Nc2ccccc2OCc2c1cccc2[N+](=O)[O-]
33 | > 52.2 µg/mL | Cn1cc(Br)c(-c2cccc(N3C(=O)CCCC3=O)c2)n1
34 | 0.3 µg/mL (≈ 1.05 µM) | Cc1cccnc1Nc1nc(-c2ccc(F)cc2)cs1
35 | > 32.7 µg/mL | COc1ccccc1C(O)c1nccn1C (stereo not given)
36 | < 0.4 µg/mL | COCc1cc(C)nc(SCc2ccc(Br)cc2)c1C#N
37 | 44 µg/mL (≈ 107 µM) | COc1ccc(S(=O)(=O)Nc2cccc(S(=O)(=O)N3CCCCC3)c2)cc1
38 | 37.5 µg/mL (≈ 136 µM) | COc1ccccc1CCNC(=O)Cc1cccs1
39 | 44.6 µg/mL (≈ 149 µM) | COc1ccc(C2SCC(=O)N2Cc2ccccc2)cc1 (stereo not given)
40 | > 35.1 µg/mL | CC(C)(C)c1cc(NC(=O)c2ccco2)no1
41 | 3.7 µg/mL (≈ 10.4 µM) | COC(=O)C1CN(C(=O)COc2cc(C)cc(C)c2)c2ccccc2O1 (stereo not given)
42 | > 46 µg/mL | CCOC(=O)CC(=O)CSc1nc(CC)c(C)cc1C#N
43 | 4.4 µg/mL (≈ 17.4 µM) | O=C(c1cccs1)c1c[nH]cc1-c1ccccc1
44 | > 44.3 µg/mL | OC(CCN1CCCCC1)c1ccc(-c2ccccc2)cc1 (stereo not given)
45 | 6.2 µg/mL (≈ 22.9 µM) | Fc1ccccc1-n1cc(-c2ccccc2)[nH]c1=S
46 | 29.7 µg/mL (≈ 108 µM) | Fc1ccc(OCCn2cnc(Cl)c2Cl)cc1

Row | solubility kinetic | SMILES
47 | > 51.7 µg/mL | CCOc1ccc(C(=O)NCC(c2ccco2)N2CCOCC2)cc1 (stereo not given)
48 | 42.3 µg/mL (≈ 134 µM) | OCCC1CN(Cc2ccon2)CCN1CCc1ccccc1 (stereo not given)
49 | 31.4 µg/mL (≈ 106 µM) | CC1=C(C(=O)N(C)C)C(c2ccc(C)s2)NC(=S)N1 (stereo not given)
50 | > 40.1 µg/mL | Cc1cc(C)cc(NS(=O)(=O)c2cccs2)c1
51 | 40.5 µg/mL (≈ 121 µM) | CCCc1cc(NCCCN(C)C)n2c(nc3ccccc32)c1C#N
52 | 36 µg/mL (≈ 85.2 µM) | Cc1ccc(NC(=O)CN(C)C(=O)COC(=O)c2ccc(NC(=O)CC#N)cc2)cc1
53 | 45.5 µg/mL (≈ 135 µM) | CCCCCNS(=O)(=O)c1cc2c3c(c1)CCC(=O)N3CCC2
54 | 0.7 µg/mL (≈ 2.31 µM) | COc1ccc(S(=O)(=O)N2CCc3ccccc3C2)cc1
55 | 46.7 µg/mL (≈ 143 µM) | CC1CCCCN1CCCNc1c(C=O)c(=O)[nH]c2ccccc12 (stereo not given)
56 | > 58.7 µg/mL | CC(C)OP(=O)(OC(C)C)C(Nc1ccc(C(=O)O)cc1)c1ccccc1 (stereo not given)
57 | 2.2 µg/mL (≈ 6.81 µM) | Cc1[nH]c(=S)c(C#N)c(C)c1Cc1ccc(Cl)cc1Cl
58 | 44.8 µg/mL (≈ 137 µM) | CC1CC(C)CN(S(=O)(=O)CC23CCC(CC2=O)C3(C)C)C1 (stereo not given)
59 | > 48.4 µg/mL | Cc1ccc(S(=O)(=O)N2CCCCC2)cc1NC(=O)C1CC1
60 | > 48.2 µg/mL | COc1ccccc1-n1c(CCC(=O)O)ccc1-c1ccccc1
61 | > 43.1 µg/mL | N#CC(C#N)=Cc1c[nH]c(=O)c(C#N)c1Nc1ccccc1
62 | 32.7 µg/mL (≈ 129 µM) | CCNC(=O)c1ccccc1CCc1ccccc1
63 | > 39.8 µg/mL | CC1=C(C)CC(C(=O)NC2CCCC2)C(C(=O)O)C1 (stereo not given)
64 | 1.1 µg/mL (≈ 3.06 µM) | O=[N+]([O-])c1cc2c(cc1CN1CCN(c3ccccc3F)CC1)OCO2
65 | 37.2 µg/mL (≈ 113 µM) | COc1ccc(S(=O)(=O)NCc2cccnc2)c2ccccc12
66 | > 34.2 µg/mL | Cl.Nc1cnn(Cc2ccc(F)cc2)c1
67 | > 45.5 µg/mL | C=C(c1ccccc1Cl)[n+]1ccccc1.F[B-](F)(F)F
68 | 16.1 µg/mL (≈ 53.1 µM) | Cc1ccc(C(=O)OCC(=O)NC(C)c2ccccc2)s1 (stereo not given)
69 | > 48.8 µg/mL | COc1ccc(C(=O)NC(=S)N2CCOCC2)cc1[N+](=O)[O-]

Row | solubility kinetic | SMILES
70 | 26.3 µg/mL (≈ 85.7 µM) | O=C(c1cccs1)N1CCN(c2cccc(Cl)c2)CC1
71 | 42.4 µg/mL (≈ 130 µM) | OCCC1CN(Cc2cccnc2)CCN1CCc1ccccc1 (stereo not given)
72 | > 40.8 µg/mL | COC(=O)c1cc(S(=O)(=O)N2CCCCC2)c[nH]1
73 | > 51.9 µg/mL | Br.Cn1c(=N)n(CC(=O)c2ccccc2)c2ccccc21
74 | > 41.8 µg/mL | CCc1ccc(NC(=O)N[C@H](C(=O)O)C(C)CC)cc1 (stereo not given in full)
75 | 4.6 µg/mL (≈ 15.1 µM) | O=C(COC(=O)c1cccc(Cl)c1)NCc1ccccc1
76 | 33.1 µg/mL (≈ 128 µM) | COc1ccc(N2C(=O)CC(NCC#N)C2=O)cc1 (stereo not given)
77 | 9.8 µg/mL (≈ 26 µM) | COc1ccccc1CNC(=O)COC(=O)/C=C/c1ccc2ccccc2n1
78 | 13.4 µg/mL (≈ 41.4 µM) | COc1ccc(CC(=O)NCc2nc(-c3ccccc3)no2)cc1
79 | > 45 µg/mL | Cc1cc(S(=O)(=O)NCc2ccco2)c(C)cc1Cl
80 | 8.1 µg/mL (≈ 29 µM) | CC(=O)Nc1nc2ccccc2n1Cc1ccc(C)cc1
81 | 3.2 µg/mL (≈ 8.32 µM) | CN(C1CCCCC1)S(=O)(=O)c1ccc(SCC(=O)C(C)(C)C)nc1
82 | 21.6 µg/mL (≈ 132 µM) | O=C1NCCn2ccc(=O)cc21
83 | > 51.7 µg/mL | CCOC(=O)N1CCN(c2nc3c(C)cccn3c(=O)c2C=O)CC1
84 | 39.2 µg/mL (≈ 118 µM) | S=C(Nc1ccccc1)N(Cc1ccccc1)Cc1ccncc1
85 | > 62.5 µg/mL | COc1ccc(C(=O)N/C(=C\c2ccccc2)C(=O)Nc2ccccc2C(=O)O)cc1
86 | < 0.7 µg/mL | COc1cc(OC)c(NC(=O)c2csc(C)c2)cc1Cl
87 | 26.5 µg/mL (≈ 93.5 µM) | COc1cccc(CN2C(=O)C(C)Oc3ccccc32)c1 (stereo not given)
88 | 14 µg/mL (≈ 55.3 µM) | CN(C)c1ccc(-c2nc3cc(N)ccc3o2)cc1
89 | > 44.3 µg/mL | CCOC(=O)c1ccc(CN2Cc3ccccc3C2=O)cc1
90 | > 60.4 µg/mL | CCOC(=O)c1sc(NC(=O)CSC(=S)N2CCN(C)CC2)nc1C
91 | 24.9 µg/mL (≈ 84.5 µM) | O=S(=O)(c1ccc(Cl)nc1)N1CCc2ccccc21
92 | < 0.7 µg/mL | CC(C)(C)C(=O)/C=c1\[nH]c(=O)/c(=C\c2ccccc2F)s1

Row | solubility kinetic | SMILES
93 | > 48.8 µg/mL | COc1ccc(/C=C/C(=O)O)cc1S(=O)(=O)N1CCCCC1
94 | > 38.4 µg/mL | CCCCOc1ccc(CN=C(N)N)cc1Cl
95 | 1.8 µg/mL (≈ 5.64 µM) | O=C(/C=C/c1ccc(O)c([N+](=O)[O-])c1)c1ccc2ccccc2c1
96 | > 42.7 µg/mL | CSCC(=O)N1CCC(CCC(=O)NC2CC2)CC1
97 | 0.5 µg/mL (≈ 1.71 µM) | CCOc1ccccc1Nc1cc(C)c2cccc(C)c2n1
98 | 21.4 µg/mL (≈ 71.3 µM) | O=C(CN1C(=O)COc2ccccc21)Nc1ccccc1F
99 | > 44.4 µg/mL | Cc1ccc(Cl)cc1NC(=O)NCCN1CCCCC1
100 | > 56.2 µg/mL | CCN(c1ccccc1)S(=O)(=O)c1ccc(C(=O)N2CCOCC2)cc1
101 | 21.2 µg/mL (≈ 57.4 µM) | Cc1ccc(C2(c3noc(CN(C)CC4CCCCO4)n3)CCCC2)cc1 (stereo not given)
102 | > 57.2 µg/mL | Cc1ccc(NC(=O)CN2CCOCC2)cc1S(=O)(=O)N1CCCCC1
103 | 32.9 µg/mL (≈ 97.2 µM) | Cc1csc(CN(C)C(=O)C2CCC(=O)N(CCN(C)C)C2)n1 (stereo not given)
104 | 6.8 µg/mL (≈ 21.3 µM) | CN(Cc1ccc(F)cc1Cl)S(=O)(=O)c1cccs1
105 | 35.1 µg/mL (≈ 118 µM) | COc1cc2c(cc1OC)CN(Cc1ccc(C)cc1)CC2
106 | > 48.7 µg/mL | O=C(CSCc1c(F)cccc1Cl)NCc1ccncc1
107 | 4.4 µg/mL (≈ 13.4 µM) | CC(C)CNC(=O)c1ccc2c(c1)C(=O)N(C1CCCCC1)C2=O
108 | 1.4 µg/mL (≈ 4.44 µM) | CCOc1ccccc1NC(=O)C(C)SCc1ccccc1 (stereo not given)
109 | 3.6 µg/mL (≈ 13.5 µM) | Cc1ccnc(NC(=O)c2oc3ccccc3c2C)c1
110 | > 45.9 µg/mL | COC(=O)c1ccccc1NC(=O)Nc1ccc(Cl)cn1
111 | > 41.3 µg/mL | Nc1[nH]c(=O)[nH]c(=O)c1N=Nc1ccc(C(=O)O)cc1
112 | > 38.7 µg/mL | Cc1c(C(=O)c2ccccc2)c(=O)n(C)c(=O)n1C
113 | > 50.9 µg/mL | Cc1ccc(C(=O)C[n+]2ccccc2)cc1.[I-]
114 | 51.9 µg/mL (≈ 136 µM) | Cn1c(=O)c2c(nc(N3CCOCC3)n2C/C=C/c2ccccc2)n(C)c1=O
115 | 39.7 µg/mL (≈ 143 µM) | CN(C)c1cccc(N(C)C)c1CNC(=O)C(C)(C)C

Row | SMILES | solubility kinetic
116 | COc1cccc(NC(=O)CN(C)C(C)C(=O)N2CCCCC2)c1.O=C(O)C(=O)O (stereo not given) | > 63.5 µg/mL
117 | COc1ccc2c(c1)c(CC[NH3+])c(C)n2Cc1ccccc1.[Cl-] | 44.5 µg/mL
118 | CN1CCC2(CC1)C(C#N)=C(N)NC(S)=C2C#N | > 39.2 µg/mL
119 | N#CC(c1cccnc1)N1CCOCC1 (stereo not given) | > 30.5 µg/mL
120 | COc1ccc(/C=C/C2=CCN(C)CC2)cc1.Cl | > 39.9 µg/mL
